Molecules are shown by their SMILES.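 Compound exposure: 48 hours, 5 concentrations, 96-well plates. TGI marks complete inhibition of growth.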 Some results are limits rather than exact numbers.

What all share (experiment): NCI-60 cell line screen, 48 h
The test system of assay [1] is SW-620 colon.
Assay [2] deals with HS 578T breast.
The subject of assay [3] is OVCAR-5 ovarian.
The test system of assay [4] is LOX IMVI melanoma.
Assay [5] deals with SNB-19 CNS.
The test system of assay [6] is SF-295 CNS.
The test system of assay [7] is 786-0 renal.
For assay [8], the system named is KM12 colon.
The test system of assay [9] is RPMI-8226 leukemia.
The test system of assay [10] is SK-MEL-28 melanoma.
The test system of assay [11] is MDA-N.
Assay [12] concerns COLO 205 colon.
Assay [13] concerns DU-145 prostate.
Assay [14] deals with SN12C renal.
For assay [15], the system named is HCT-15 colon.
The subject of assay [16] is UO-31 renal.
For assay [17], the system named is SK-OV-3 ovarian.
Assay [18] relates to UACC-62 melanoma.
In assay [19] the test system is HCC-2998 colon.
Assay [20] relates to A498 renal.

As to `COc1ccc(C[C@H]2COC(=O)[C@@H]2Cc2ccc(Br)cc2)cc1OC`, the TGI in assay [1] was over 100 µM; in assay [2] it was over 90.9 µM; in assay [3] it was over 100 µM; in [4], 37.8 µM; in assay [5], over 61.8 µM; in [6] it was over 74.3 µM. Also, the TGI was over 100 µM in assay [7]; over 75.2 µM in assay [8]; over 100 µM in [9]; over 100 µM in [10]; over 100 µM in assay [11]; 39.5 µM in assay [12]. Moreover, the TGI in assay [13] was over 84.3 µM; in [14], over 100 µM; in [15], over 100 µM; in assay [16] it was 24.2 µM; in assay [17], over 100 µM; in [18], 96.8 µM. The compound also yielded a TGI in assay [19] of over 100 µM.

`Cc1cn(CC(=S)NCCc2c[nH]c3ccccc23)c(=O)[nH]c1=O`: the TGI in assay [1], in assay [2], in assay [3], in assay [20], in assay [4] and in assay [5] was over 100 µM each time. In addition, the TGI in assay [7], in assay [8], in [9], in [10], in assay [11] and in [12] was over 100 µM throughout. Besides, the TGI in assay [13], in assay [14], in assay [15], in assay [16], in assay [17] and in assay [18] was over 100 µM throughout.

Regarding `CCCCCN1C(=O)C(Cc2ccccc2)N=C(c2ccc(O)cc2)c2cc(Cl)ccc21` (stereo not drawn), the TGI in assay [1] is 26.8 µM; in assay [2] it was 32.4 µM; in assay [3], 48.3 µM; in assay [20], over 48.4 µM; in [4], 18.5 µM; in assay [5], 33.7 µM. The TGI in [6] was 20.7 µM; in assay [7], 27.3 µM; in assay [8], 30.3 µM; in [9] it was 12.1 µM; in [10], 29.7 µM; in assay [11] it was over 40.3 µM. The TGI in assay [12] was 10.1 µM; in assay [13], 30.9 µM; in [14], over 39.6 µM; in [15] it was 21.2 µM; in [16], 25.3 µM; in [17], 41.1 µM. In assay [18], this compound returned a TGI of 25 µM.

Turning to `CCOC(=O)/C=C(/C(=O)OCC)n1ccc(=O)n(Cc2cn(CCCCOC(C)=O)nn2)c1=O`, the TGI in assay [1], in [2], in assay [3], in [4], in assay [5] and in [6] was over 100 µM each time. Moreover, the TGI in assay [7], in assay [8], in assay [9], in assay [10], in [11] and in [12] was over 100 µM throughout. The TGI in assay [13], in [14], in [15], in assay [16], in [17] and in assay [18] was over 100 µM in each case. In assay [19], this compound returned a TGI of over 100 µM.

As to `COc1nc(=O)[nH]c2c1C(c1ccc([N+](=O)[O-])cc1)c1c(OC)nc(=O)[nH]c1O2`, the TGI in assay [1], in assay [2], in assay [3], in assay [20], in assay [5] and in [6] was over 100 µM each time. For the same compound, the TGI in [7], in assay [8], in assay [9], in [10], in [11] and in assay [12] was over 100 µM each time. In addition, the TGI in assay [13], in [14], in [15], in assay [16], in assay [17] and in assay [18] was over 100 µM throughout.

In the case of `CC(C)N(C(C)C)S(=O)(=O)CC12CCC(C/C1=N\O)C2` (stereo not drawn), the TGI in [1], in assay [2], in assay [3], in [4], in [5] and in assay [6] was over 100 µM in each case. Besides, the TGI in assay [7], in assay [8], in assay [10], in [11], in assay [12] and in assay [13] was over 100 µM in each case. Moreover, the TGI in assay [14], in assay [15], in assay [16], in assay [17], in [18] and in assay [19] was over 100 µM in each case.

As for `CCCCC/C=C\C=C\CCCCCCCCC(=O)OC`, the TGI is over 100 µM in assay [1]; over 100 µM in assay [2]; over 100 µM in assay [3]; over 100 µM in assay [20]; 87.9 µM in assay [4]; over 100 µM in [5]. The TGI in [6], in assay [7], in [8], in assay [9], in assay [10] and in [11] was over 100 µM each time. Moreover, the TGI is over 100 µM in [12]; over 100 µM in [13]; over 100 µM in assay [14]; over 100 µM in assay [15]; 31.3 µM in [16]; over 100 µM in assay [17].

In the case of `CC(=O)N1C(c2[nH]c3ccccc3c2Cc2ccccc2)CCN1c1ccccc1` (stereo not drawn), the TGI in [1], in [2], in [3], in assay [4], in [5] and in assay [6] was over 10 µM throughout. For the same compound, the TGI in assay [7], in assay [9], in assay [10], in assay [11], in assay [12] and in assay [13] was over 10 µM in each case. For the same compound, the TGI in assay [14], in assay [15], in assay [16], in assay [17] and in assay [19] was over 10 µM throughout.

`Nc1ccc(Oc2ccc(C34CC5C6CC7(c8ccc(Oc9ccc(N)cc9)cc8)CC5C(C3)C(C7)C6C4)cc2)cc1`: the TGI in assay [1], in assay [2], in assay [3], in [20], in [4] and in [5] was over 100 µM each time. For the same compound, the TGI in assay [6], in assay [7], in assay [8], in [9], in [10] and in assay [11] was over 100 µM throughout. For the same compound, the TGI in [12], in [13], in assay [14], in [15], in [16] and in [18] was over 100 µM in each case.

`CC(CC(=O)N1C2CC3CCC2(CS1(=O)=O)C3(C)C)[Si](C)(C)C` (stereo not drawn): the TGI in assay [1], in assay [2], in assay [4], in assay [5], in assay [6] and in [7] was over 100 µM in each case. Also, the TGI in assay [8], in assay [9], in [10], in assay [11], in assay [12] and in assay [13] was over 100 µM in each case. Besides, the TGI in [14], in [15], in [16] and in [19] was over 100 µM in each case.

For the compound `C1=NN2C(c3ccccc3)=NOC2C2C(c3ccccc3)=NOC12` (stereo not drawn), the TGI in assay [2], in assay [3], in [4], in assay [5], in assay [6] and in [7] was over 100 µM in each case. The TGI in [8], in assay [11], in [12], in assay [13], in [15] and in assay [16] was over 100 µM each time. Besides, the TGI in assay [17], in assay [18] and in assay [19] was over 100 µM in each case.

As to `COC(=O)c1cc(/C=C/C(=O)Cc2ccccc2)cn1S(=O)(=O)c1ccccc1`, the TGI in assay [2], in [3], in assay [4], in assay [5], in assay [6] and in assay [7] was over 100 µM each time. Besides, the TGI in [8], in assay [11], in assay [12], in assay [13], in assay [14] and in [15] was over 100 µM throughout. Further, the TGI in [16], in assay [17], in [18] and in assay [19] was over 100 µM in each case.

As for `COc1ccccc1N1CCN(S(=O)(=O)c2ccc(Cl)cc2)C1=N`, the TGI in assay [1], in [2], in assay [3], in assay [20], in [5] and in [6] was over 100 µM in each case. For the same compound, the TGI in assay [7], in assay [8], in assay [9], in assay [10], in assay [11] and in assay [12] was over 100 µM each time. Also, the TGI in assay [13], in assay [14], in assay [15], in assay [16], in assay [17] and in assay [18] was over 100 µM each time.

With `N#Cc1c(-c2ccccc2)cn(C(=O)c2ccccc2)c1N`, the TGI in assay [1], in [2], in assay [3], in [4], in assay [5] and in [6] was over 100 µM each time. In addition, the TGI in assay [7], in assay [8], in [9], in [10], in assay [11] and in assay [12] was over 100 µM each time. In addition, the TGI in [13], in assay [14], in assay [15], in assay [16], in assay [17] and in assay [18] was over 100 µM in each case. The compound further registered a TGI in assay [19] of 0.0659 µM.

For the compound `Cc1nn(CNc2ccc(F)c(Cl)c2)c(=S)n1/N=C/c1ccc(-c2ccc(Cl)cc2Cl)o1`, the TGI in [1] worked out at 29.2 µM; in assay [2], 52.9 µM; in assay [3], 41.2 µM; in assay [20] it was 30.3 µM; in assay [4], 44.9 µM; in assay [6], 33.7 µM. Besides, the TGI in [7] amounted to 29 µM; in [8], 55.7 µM; in assay [9] it was 29.7 µM; in assay [10], 44.3 µM; in assay [11] it was 33.5 µM; in assay [13], 30.7 µM. Further, the TGI was determined as 41.6 µM in assay [15], 32.2 µM in assay [16] and 33.2 µM in assay [17].

(Values after PubChem BioAssay (NCI).)
